Results reported in PubChem BioAssay (NCI).
“And” between values parts separate entries of the source, which are not always exact repeats. Identical values can stand only once.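 Briefly, cells in 96-well plates were exposed to five compound concentrations for 48 h, and endpoints were estimated by linear interpolation. GI50 = concentration required for 50% inhibition of growth. Definition used: TGI = concentration required for complete inhibition of growth.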

What follows are compounds tested on MDA-MB-468 breast (assay: inhibition of tumour cell growth, NCI panel, 48 h).

`COc1cc(C(=O)/C=C/c2c(C)n([O-])c3ccc(Cl)cc3[n+]2=O)cc(OC)c1OC` and `COc1ccc(-c2nc3sccn3c2/C=C/C(=O)c2cc(OC)c(OC)c(OC)c2)cc1` are within 1.5-fold of each other in GI50: 3.52 µM for the first, 2.44 µM for the second.

Going from `COc1ccc(C2CC(c3cccc(Nc4ccncc4)c3)=NN2c2ccccc2)cc1` (stereo not given) to `O=C(Nc1ccc(-n2cc(-c3ccncc3)c(-c3ccc(Cl)c(O)c3)n2)cc1)c1ccc(Cl)c(Cl)c1`, the GI50 rises from 1.42 µM to 4.43 µM (3.1-fold).

First: CCCCCCC1CCCCN1C(c1ccccc1)C(O)c1ccccc1 (stereo not given)
Second: O=[N+]([O-])/C(=C/C=C/c1ccccc1)c1ccccc1
The GI50 of the first is 3-fold higher: 3.81 µM for the first, 1.25 µM for the second.

`OCCN1CCCN(CCCN2c3ccccc3Sc3ccc(C(F)(F)F)cc32)CC1` and `Clc1cc(Cl)cc(Nc2ccc3c(OCCCN4CCOCC4)cccc3n2)c1` are within 1.5-fold of each other in GI50: 1.61 µM for the first, 2.08 µM for the second.

`O=C(/C=C/c1ccccn1)c1ccccc1` and `CC(C)(C)OC(=O)CC(S(=O)(=O)c1ccccc1)S(=O)(=O)c1ccccc1` are within 1.5-fold of each other in GI50: 1.8 µM for the first, 1.71 µM for the second.

First: COc1ccc(-c2nn(-c3cccc(Cl)c3)cc2-c2c(C#N)c(=O)n3[nH]c(-c4ccc(C)o4)nc3c2C#N)cc1
Second: COc1cc2c(cc1OC)C(Sc1ccc(Cl)cc1)c1c(nc(N)c(C#N)c1N)O2 (stereo not given)
The GI50 of the first is 1.7-fold higher: 1.34 µM for the first, 0.794 µM for the second.

Going from `COc1cc(-c2ccc[nH]2)[nH]c1/C=C1\N=C(C)C(C(=O)NC(C)C)=C1C` to `COc1cc(C(=O)Nc2ccc(-c3nc4ccccc4[nH]3)cc2)cc(OC)c1OC`, the GI50 rises from 2.91 µM to 11.9 µM (4.1-fold).

First: COc1ccccc1CNCCCN1C(=O)c2ccc3c4c(ccc(c24)C1=O)C(=O)N(CCCNCCCCN)C3=O
Second: COc1ccc([C@H]2c3[nH]c4ccccc4c3C[C@H]3C(=O)N(CCCCCCC(=O)NO)CC(=O)N23)cc1
The GI50 of the first is 16-fold lower: 0.0907 µM for the first, 1.43 µM for the second.

`CC(=O)CCN1CC2CN=NC2(C#N)C1` (stereo not given) and `CN1CCC(C(=O)Nc2n[nH]c3nnc(-c4ccccc4)cc23)CC1` cannot be ordered by GI50: greater than 100 µM for the first, greater than 18.1 µM for the second.

First: Cn1cc(C2=C(c3cccc([N+](=O)[O-])c3)C(=O)NC2=O)c2ccccc21
Second: Cc1nc2sc(C(=O)Nc3cccc(Cl)c3)c(N)c2cc1C(O)c1ccccc1 (stereo not given)
The GI50 of the first is 12-fold higher: 5.85 µM for the first, 0.486 µM for the second.

`C#CCN(CCCOc1ccc(Cl)cc1Cl)CCCSC(=O)CCCCCN1/C(=C\C=C2/CCCC(/C=C/C3=[N+](CCCCCC(=O)[O-])c4ccccc4C3(C)C)=C2Cl)C(C)(C)c2ccccc21` and `C=C(c1ccc(C(=O)NCCCn2ccnc2)cc1)c1cc2c(cc1C)C(C)(C)CCC2(C)C` are within 1.5-fold of each other in GI50: 1.35 µM for the first, 1.04 µM for the second.

`CNc1ccc(CSc2ccc(C)cc2)cc1` and `Cc1ncc([N+](=O)[O-])n1CCOc1ccc(C(=O)/C=C/c2ccc(C(F)(F)F)cc2)cc1` are within 1.5-fold of each other in GI50: 2.75 µM for the first, 3.92 µM for the second.

Going from `Nc1nc2c([nH]1)c1[nH]c3ccccc3c1c1[nH]c3ccccc3c21` to `CN(C)CC(=O)N1CCc2c([nH]c3ccccc23)C1c1cccnc1` (stereo not given), the GI50 rises from 2.02 µM to 3.86 µM (1.9-fold).

Compared with `CN(Cc1cnc2nc(N)nc(N)c2n1)c1c(Cl)cc(C(=O)NC(CCC(=O)O)C(=O)O)cc1Br` (stereo not given), `CCOC(=O)c1c(-c2ccc(Cl)cc2)c(C#N)c(=S)n(C2OC(COC(C)=O)C(OC(C)=O)C(OC(C)=O)C2OC(C)=O)c1C` (stereo not given) is higher in GI50: less than 0.0118 µM for the first, greater than 100 µM for the second.

Work on `COc1cc(/C=C/C(=O)/C=C/c2ccc(-n3ccnc3)cc2)ccc1O` yielded a GI50 of 2.2 µM.

Compared with `COc1cc(C(=O)/C=C/c2c(C)n([O-])c3ccc(Cl)cc3[n+]2=O)cc(OC)c1OC`, `COc1ccc(-c2nc3sccn3c2/C=C/C(=O)c2cc(OC)c(OC)c(OC)c2)cc1` is 1.6-fold lower in TGI: 19.3 µM for the first, 12.4 µM for the second.

Compared with `COc1ccc(C2CC(c3cccc(Nc4ccncc4)c3)=NN2c2ccccc2)cc1` (stereo not given), `O=C(Nc1ccc(-n2cc(-c3ccncc3)c(-c3ccc(Cl)c(O)c3)n2)cc1)c1ccc(Cl)c(Cl)c1` is higher in TGI: 2.82 µM for the first, greater than 100 µM for the second.

Compared with `CCCCCCC1CCCCN1C(c1ccccc1)C(O)c1ccccc1` (stereo not given), `O=[N+]([O-])/C(=C/C=C/c1ccccc1)c1ccccc1` is 4.7-fold lower in TGI: 14.4 µM for the first, 3.09 µM for the second.

`OCCN1CCCN(CCCN2c3ccccc3Sc3ccc(C(F)(F)F)cc32)CC1` and `Clc1cc(Cl)cc(Nc2ccc3c(OCCCN4CCOCC4)cccc3n2)c1` are within 1.5-fold of each other in TGI: 3.57 µM for the first, 4.33 µM for the second.

`O=C(/C=C/c1ccccn1)c1ccccc1` and `CC(C)(C)OC(=O)CC(S(=O)(=O)c1ccccc1)S(=O)(=O)c1ccccc1` are within 1.5-fold of each other in TGI: 3.84 µM for the first, 3.2 µM for the second.

Going from `COc1ccc(-c2nn(-c3cccc(Cl)c3)cc2-c2c(C#N)c(=O)n3[nH]c(-c4ccc(C)o4)nc3c2C#N)cc1` to `COc1cc2c(cc1OC)C(Sc1ccc(Cl)cc1)c1c(nc(N)c(C#N)c1N)O2` (stereo not given), the TGI falls from 4.93 µM to 2.7 µM (1.8-fold).

First: COc1cc(-c2ccc[nH]2)[nH]c1/C=C1\N=C(C)C(C(=O)NC(C)C)=C1C
Second: COc1cc(C(=O)Nc2ccc(-c3nc4ccccc4[nH]3)cc2)cc(OC)c1OC
The TGI of the first is 1.7-fold lower: 16.8 µM for the first, 28.4 µM for the second.

Going from `COc1ccccc1CNCCCN1C(=O)c2ccc3c4c(ccc(c24)C1=O)C(=O)N(CCCNCCCCN)C3=O` to `COc1ccc([C@H]2c3[nH]c4ccccc4c3C[C@H]3C(=O)N(CCCCCCC(=O)NO)CC(=O)N23)cc1`, the TGI rises from 0.231 µM to 18.5 µM (80-fold).

`CC(=O)CCN1CC2CN=NC2(C#N)C1` (stereo not given) and `CN1CCC(C(=O)Nc2n[nH]c3nnc(-c4ccccc4)cc23)CC1` cannot be ordered by TGI: greater than 100 µM for the first, greater than 25 µM for the second.

First: Cn1cc(C2=C(c3cccc([N+](=O)[O-])c3)C(=O)NC2=O)c2ccccc21
Second: Cc1nc2sc(C(=O)Nc3cccc(Cl)c3)c(N)c2cc1C(O)c1ccccc1 (stereo not given)
The TGI of the first is higher: greater than 25 µM for the first, 20.1 µM for the second.

`C#CCN(CCCOc1ccc(Cl)cc1Cl)CCCSC(=O)CCCCCN1/C(=C\C=C2/CCCC(/C=C/C3=[N+](CCCCCC(=O)[O-])c4ccccc4C3(C)C)=C2Cl)C(C)(C)c2ccccc21` and `C=C(c1ccc(C(=O)NCCCn2ccnc2)cc1)c1cc2c(cc1C)C(C)(C)CCC2(C)C` are within 1.5-fold of each other in TGI: 3.67 µM for the first, 3.24 µM for the second.

First: CNc1ccc(CSc2ccc(C)cc2)cc1
Second: Cc1ncc([N+](=O)[O-])n1CCOc1ccc(C(=O)/C=C/c2ccc(C(F)(F)F)cc2)cc1
The TGI of the first is 2.2-fold lower: 9.9 µM for the first, 21.8 µM for the second.

First: Nc1nc2c([nH]1)c1[nH]c3ccccc3c1c1[nH]c3ccccc3c21
Second: CN(C)CC(=O)N1CCc2c([nH]c3ccccc23)C1c1cccnc1 (stereo not given)
The TGI of the first is 11-fold lower: 4.9 µM for the first, 52.9 µM for the second.

`CN(Cc1cnc2nc(N)nc(N)c2n1)c1c(Cl)cc(C(=O)NC(CCC(=O)O)C(=O)O)cc1Br` (stereo not given) and `CCOC(=O)c1c(-c2ccc(Cl)cc2)c(C#N)c(=S)n(C2OC(COC(C)=O)C(OC(C)=O)C(OC(C)=O)C2OC(C)=O)c1C` (stereo not given) cannot be ordered by TGI: greater than 100 µM for the first, greater than 100 µM for the second.

`COc1cc(/C=C/C(=O)/C=C/c2ccc(-n3ccnc3)cc2)ccc1O` showed a TGI of 5.36 µM.

`CC(C)(C)c1cnc(CSc2cnc(NC(=O)C3CCNCC3)s2)o1` was tested, and the GI50 was 0.097 µM and 0.0794 µM.

With `CC(C)(C)c1cnc(CSc2cnc(NC(=O)C3CCNCC3)s2)o1` the TGI was 0.344 µM and 0.306 µM.
